These results are taken from a melting point compilation (Tetko et al.; mined from patent text by program, amines drawn as free bases though some values may be those of a salt).

As a reminder, the melting point is the temperature of the solid-liquid transition.

As to `CCn1cc(C(=O)O)c(=O)c2cc(F)c(N3CCNC(c4c[nH]c5ccccc45)C3)cc21` (stereo not drawn), the melting point amounted to 230 °C.
`COc1ccc(S(=O)(=O)Nc2ccccc2C(F)(F)F)cc1`: the melting point fell in the range of 92 to 93 °C.
Turning to `Clc1cccc(Cn2ccc(CN3CCC(c4ccccc4)(c4ccccc4)CC3)n2)c1`, the melting point is 136 to 137 °C.
Next, `COC(=O)C1=C(C)NC(N)=C(C(=O)OC(C)C)C1c1cccc([N+](=O)[O-])c1` (stereo not drawn): 167 °C; `COCC1=C(C)C(=O)C(OC)=C(OC)C1=O`: 31 to 36 °C; `O=C(O)c1ccc2c(c1)CN(C(=O)OCc1ccccc1)C2`: 197 to 199 °C.
Next, `Cc1c(CC(=O)O)cccc1C(=O)c1ccc(Cl)cc1`: 152 °C.
On to `CC(OC1CN(C(N)=O)C1)c1cccc(C(F)(F)F)c1` (stereo not drawn), for which the melting point lay within 130 to 132 °C.
As for `CC12CCC3C(CCC4C(=O)CCCC43C)C1CCC2O` (stereo not drawn), the figure is 123 to 126 °C.
In the case of `Cc1nn(-c2c(Cl)cc(C(F)(F)F)cc2Cl)nc1S`, the melting point lay in the range of 86 to 89 °C.
On to `COCC(C)Oc1cc(Oc2ccc(S(C)(=O)=O)cc2)cc2cc(C3=NCC(CC(C)(C)O)S3)[nH]c12` (stereo not drawn), for which the melting point was in the range of 112 to 113 °C.
As for `CCOC(=O)c1c(-c2ccc(OC)c(OC)c2)c2cc(OC)c(OC)cc2[nH]c1=O`, the figure is 273 to 276 °C.
As for `CCOC(=O)C1(c2ccccc2)CCC=CC1Cl` (stereo not drawn), the figure is 137 to 139 °C; as for `CN(C)CCNC(=O)Cc1ccc(OCc2ccc(-c3ccccc3)cc2)cc1`, 160 to 161 °C.
In the case of `COC(=O)CC1CC(CCc2c(-c3ccc(F)cc3)c(-c3ccccc3)c(C(=O)Nc3ccc(C(=O)OC)cn3)n2C(C)C)OC(C)(C)O1` (stereo not drawn), the melting point is 77 to 84 °C.
`COc1cc2c(cc1OC)-c1cc3ccccc3nc1CC2` showed a melting point of 55 to 56 °C.
Molecule `CC(C)(O)Cn1cnc2c1c1ccccc1n1nnnc21` registered a melting point of 246 to 247 °C.
As for `Cc1nn(-c2ccccn2)c2nc3cc(F)c(F)cc3c(Cl)c12`, the figure is 175 to 176 °C; as for `CCN(CC)CC1CCCCN1CC(C)(C)NC(=O)N1c2ccccc2C(=O)Nc2cccnc21` (stereo not drawn), 160 to 162 °C; as for `O=C(O)CCc1cn(Cc2ccc(OCc3ccncc3)cc2)cc1-c1ccccc1`, 124 to 125 °C.
Next, `Cc1ncc2cc(C(c3ccccc3)n3ccnc3)ccc2n1` (stereo not drawn): 130 °C.
As for `COc1cc(Cl)c(N)cc1-c1nc(C)c(-c2cccnc2)[nH]1`, the figure is 173 to 175 °C; as for `N=C(N)NC(=O)c1cn(-c2nccc3ccccc23)c2ncccc12`, 250 °C; as for `CNC(=O)N1N=C(c2ccc(N)cc2)c2cc(Cl)c(Cl)cc2CC1C` (stereo not drawn), 224 to 225 °C.
In the case of `N#CN1CCC(C2c3ccccc3NN2c2ccccc2Cl)CC1` (stereo not drawn), the melting point lay within 109 to 111 °C.
`COc1ccc(C(=O)CSc2ccccc2)cc1`: the melting point lay within 83 to 85 °C.
`COC(=O)C(C=CC(=O)O)=CNc1ccc(Cl)cc1`: the melting point was 160 to 161 °C.
As to `Cc1nc(C)c(Cl)c(NCc2nccc(SCCCCBr)c2C)n1`, the melting point was 127 to 128 °C.
As for `O=C(O)c1nc(-c2ccc(Cl)cc2Cl)n(-c2ccc(Cl)cc2)c1Br`, the figure is 205 to 207 °C; as for `Fc1cccc(F)c1C1=N[C@@H](c2ccc(-c3ccc(S)cc3)cc2)CO1`, 133 to 135 °C; as for `Cc1cnc(N2CCc3ccccc3CC2)c([N+](=O)[O-])c1`, 87 to 88 °C.
As for `c1ccc2c(c1)-c1ccccc1C2CC1c2ccccc2-c2ccccc21`, the figure is 210 to 212 °C.
As for `NC(=O)Cc1cn(-c2ccccc2)nc1-c1ccc(Cl)cc1`, the figure is 182 °C.
Turning to `COc1cc(N)c(Cl)cc1C(=O)NCC1CCN(CCCCCC(=O)c2cc3ccccc3s2)CC1`, the melting point lay in the range of 157 to 159 °C.
Next, `OCC#Cc1cnc(Cl)nc1NC1CCCC1`: 162 to 163 °C.
As for `O=C(Nc1cc(Cl)ccc1O)Nc1ccccc1C(F)(F)F`, the figure is 183 to 184 °C; as for `CC1(C(=O)Nc2ccc(OCc3ccccc3)c(C(F)(F)F)c2)CC1`, 120 to 122 °C.
The molecule `CN1C(=O)[C@H](NC(=O)C2CCC3(CC2)CCN(C(=O)OC(C)(C)C)CC3)N=C(c2ccccc2)c2ccccc21` registered a melting point of 135 to 138 °C.
Take `CON=C(C1=Nc2ccc(Cl)cc2C(c2ccccc2F)=NC1)[N+](=O)[O-]`: the melting point lay in the range of 130 to 133 °C.
As for `CNS(=O)(=O)c1csc(C(=O)OC)c1`, the figure is 142 °C; as for `C=CCCC(C#N)(C#N)Cc1ccc(OCC=C)cc1`, 77.7 °C; as for `CC(=O)NCC(C)n1nnnc1S` (stereo not drawn), 176 to 178 °C.
`CC(C)CCNc1nc(-c2ccccc2)c(-c2ccnc(Nc3ccccc3)n2)s1` displayed a melting point of 170 to 172 °C.
As for `COP(=O)(OC)OCN1C(=O)NC(c2ccccc2)(c2ccccc2)C1=O`, the figure is 123 to 124 °C; as for `CC1=C(C(=O)Nc2ccccc2)OCCO1`, 85 to 87 °C.
Consider `COC(=O)C1=C(C)NC(C)=C(P2(=O)OCCCO2)C1c1cccc([N+](=O)[O-])c1` (stereo not drawn), for which the melting point lay within 221 to 223 °C.
As for `O=C(O)c1cccc(NC(=O)c2sc3c([N+](=O)[O-])c(O)c(O)cc3c2Cl)c1`, the figure is 293 to 294 °C; as for `CCn1c(=O)c(CC(=O)O)cc2ccc(O)cc21`, 226 to 229 °C; as for `CC(C)(Cc1cc([N+](=O)[O-])c(F)cc1Cl)C(=O)O`, 102 to 104 °C.
Turning to `Cc1cc(C)nc(NC(=O)NS(=O)(=O)c2ccccc2O)n1`, the melting point amounted to 180 °C.
`Cc1c(-c2ccc(OC(C)C)cc2)n(Cc2ccc(OCCN3CCCCC3)cc2)c2ccc(O)cc12` had a melting point of 120 to 125 °C.
As for `CCn1c(=O)n(CCCCC(C)=O)c(=O)c2cnn(C)c21`, the figure is 112 °C; as for `Cc1nc(NC(=O)NS(=O)(=O)c2cccc3c2nnn3C)nc2c1CCO2`, 234 to 240 °C; as for `Nc1nc(Nc2ccccc2)sc1C(=O)c1c(Cl)cccc1Cl`, 245 to 246 °C.
As for `CC(O)C(C)Sc1sc(-c2cc[nH]n2)c2c1C(=O)CC(C)(C)C2` (stereo not drawn), the figure is 171 to 174 °C; as for `CCOC(=O)C1=C(COCC(N)=S)NC(C)=C(C(=O)OC)C1c1ccccc1Cl` (stereo not drawn), 149 to 150 °C.
Next, `CN(C)CCOc1ccc2nc(C#N)nc(NC3CCCC3)c2c1`: 158 to 160 °C; `CCCCCCCCOc1ccc(C(=O)Oc2ccc(-c3ccc(O)cc3)cc2)cc1`: 183 °C.
`COc1cc2nc(SCc3ccccc3)nn2c(Cl)n1` had a melting point of 140 to 141 °C.
As for `CCOC(=O)COc1cccc2c1CCc1sc(SCC(c3ccccc3)c3ccccc3)nc1-2`, the melting point was in the range of 92 to 93 °C.
As for `CC(C)=NOCc1nc2c(N)nc3ccccc3c2n1CC(C)(C)O`, the figure is 212 to 216 °C.
Molecule `CC(C)(C)OC(=O)/C=C/c1cccc(-c2nc(=O)c3ccccc3s2)n1` yielded a melting point of 176 to 178 °C.
`OC(CNc1ncnc2nc[nH]c12)CN1CCN(C(c2ccc(F)cc2)c2ccc(F)cc2)CC1` (stereo not drawn) displayed a melting point of 140 to 170 °C.
